Laboratory results from patent US8921424B2, “Histone deacetylase inhibitors, process for preparation and uses thereof” (Zhejiang Hisun Pharmaceutical Co. Ltd., priority 2007, dated 2014).
pIC50: −log10 of the molar value. Where two headings read alike, the source gives them in different places.

What was measured:
HDACs = test: In vitro HDACi assay (BIOMOL fluorescent-based HDAC activity assay); type: biochemical; details: for IC50: Table 3, read-out: IC50 (nM) HDACs; for pIC50: Table 4, read-out: HDAC enzyme inhibition activity IC50
Protocol: (§1) In Vitro HDACi Assay for Determination of IC50 Values
(§2) The assay has been carried out in white 96 well formats according to the BIOMOL's method. […] The reaction mixture was incubated at room temperature for 2 hours. Flur de lys Developer was added and the reaction was incubated for 10 min. Briefly, deacetylation of the substrate sensitizes to the developer, which then generates a fluorophore. The fluorophore is excited with 360 nm light and the emitted light (460 nm) is detected on a fluorometric plate reader (Molecular Device Ultra Microplate detection system, MD Group Ltd).
(§3) The analytical software, Prism 4.0 (GraphPad Software Inc) has been used to generate IC50 from a series of data.

HL-60 = test: Cell-based proliferation assay (SRB), HL-60; details: Homo sapiens
HCT116 = test: Cell-based proliferation assay (SRB), HCT116; details: Homo sapiens
Protocol: (§4) Cell-Based Proliferation Assay for Determination of GI50 Values
(§5) A rapid multiwell plate assay using Sulforhodamine B (SRB) protein stain was adopted to evaluate the growth inhibitory effects of the compounds of the present invention. The screening panel of cancer cell lines includes Colo205 and HCT116 colon cancer cells, MDA-MB231 and MDA-MB435 chest cancer cells, A549 lung cancer cells, and Chinese hamster ovary cell line CHO, which were obtained from ATCC.
(§6) The cell line Colo205 is grown in RPMI 1640 medium containing 2 mM L-glutamine, 5% fetal bovine serum, and 1.0 mM sodium pyruvic acid. Cell lines A549 and MDA-MB231 are grown in RPMI 1640 medium containing 2 mM L-glutamine and 5% fetal bovine serum. The cell line MDA-MB435 is grown in DMEM medium containing 2 mM L-glutamine and 5% fetal bovine serum. The cell lines HCT 116 is grown in IMEM medium containing 2 mM L-glutamine and 5% fetal bovine serum. The CHO cell line, used as a normal control on toxicity, is grown in a special medium for cell line. For a typical screening experiment, A549 and Colo205 cells are inoculated into 96-well microtiter plates, with 100 μL per well, and 2000 and 5000 cells per well respectively for either cell line. MDA-MB435, HCT116, MDA-MB231 and CHO cells are also inoculated into 96-well microtiter plates, with 6000 cells per well. After cell inoculation, the microtiter plates are incubated at 37° C., 5% CO2, and 100% relative humidity for 24 hr in order to make cells adhere to well wall.
(§7) After 24 h incubation or time zero for drug addition, with each cell line 50 μl of cold 50% (w/v) TCA is added to wells used for control to fix cells in situ. Also at time zero, cells in other wells are treated with 100 μl of compound of different concentrations for 24 hr, 48 hr, and 72 hr respectively, with varying final compound concentration (0.1 μM, 1 μM, 5 μM 10 μM). For each treatment duration at each compound concentration, there are triplicate wells, as well as an array of control wells including a blank control well (cell culture medium only, no cells), a no-compound control well (adding same volume of cell culture medium but no compound), a positive control well (treated with Suberoylanilide hydroxamic acid (SAHA)), and normal cell well control (CHO cells). Following the addition of compounds, cell plates are incubated for 24 h, 48 h or 72 h per treatment group at 37° C., 5% CO2, and 100% relative humidity. The Treatment is then terminated by addition of cold TCA and incubation of 1 hr at 4° C. The supernatant is discarded, and all wells are washed five times with de-ioned water and air dried. Then each well is added with 100 μl sulforhodamine B (SRB) solution (0.4% (w/v) made in 1% acetic acid) and cell plates are incubated for 20-30 minutes at room temperature. After staining, unbound dye is removed by washing five times with 1% acetic acid and the plates are air dried. Bound stain is subsequently solubilized with 10 mM (200 μL) Tris base with the help of 5 min platform vibration or pipetting up and down, and the absorbance is read on an automated plate reader (M5 detection system, MD Group Ltd.) at a wavelength of 565 nm (calibrated zero reading of blank control at wavelength of 690 nm). The analytical software, XL-fit has been used to generate GI50 from a series of data thus obtained.

MDAMB435 = test: Cell-based proliferation assay (SRB), MDAMB435; details: Homo sapiens
Protocol: as §4, §5, §6, §7

BXPC-3 = test: Cell-based proliferation assay (SRB), BXPC-3; details: Homo sapiens
Colo205 = test: Cell-based proliferation assay (SRB), Colo205; details: Homo sapiens
Protocol: as §4, §5, §6, §7

HDAC6 = HDAC6 (Homo sapiens (Human), UniProt Q9UBN7); test: In vitro HDACi assay, HDAC6; type: biochemical; details: Table 3; read-out: IC50 (nM) HDAC6
Sequence of HDAC6 (Q9UBN7 whole entry, species assumed): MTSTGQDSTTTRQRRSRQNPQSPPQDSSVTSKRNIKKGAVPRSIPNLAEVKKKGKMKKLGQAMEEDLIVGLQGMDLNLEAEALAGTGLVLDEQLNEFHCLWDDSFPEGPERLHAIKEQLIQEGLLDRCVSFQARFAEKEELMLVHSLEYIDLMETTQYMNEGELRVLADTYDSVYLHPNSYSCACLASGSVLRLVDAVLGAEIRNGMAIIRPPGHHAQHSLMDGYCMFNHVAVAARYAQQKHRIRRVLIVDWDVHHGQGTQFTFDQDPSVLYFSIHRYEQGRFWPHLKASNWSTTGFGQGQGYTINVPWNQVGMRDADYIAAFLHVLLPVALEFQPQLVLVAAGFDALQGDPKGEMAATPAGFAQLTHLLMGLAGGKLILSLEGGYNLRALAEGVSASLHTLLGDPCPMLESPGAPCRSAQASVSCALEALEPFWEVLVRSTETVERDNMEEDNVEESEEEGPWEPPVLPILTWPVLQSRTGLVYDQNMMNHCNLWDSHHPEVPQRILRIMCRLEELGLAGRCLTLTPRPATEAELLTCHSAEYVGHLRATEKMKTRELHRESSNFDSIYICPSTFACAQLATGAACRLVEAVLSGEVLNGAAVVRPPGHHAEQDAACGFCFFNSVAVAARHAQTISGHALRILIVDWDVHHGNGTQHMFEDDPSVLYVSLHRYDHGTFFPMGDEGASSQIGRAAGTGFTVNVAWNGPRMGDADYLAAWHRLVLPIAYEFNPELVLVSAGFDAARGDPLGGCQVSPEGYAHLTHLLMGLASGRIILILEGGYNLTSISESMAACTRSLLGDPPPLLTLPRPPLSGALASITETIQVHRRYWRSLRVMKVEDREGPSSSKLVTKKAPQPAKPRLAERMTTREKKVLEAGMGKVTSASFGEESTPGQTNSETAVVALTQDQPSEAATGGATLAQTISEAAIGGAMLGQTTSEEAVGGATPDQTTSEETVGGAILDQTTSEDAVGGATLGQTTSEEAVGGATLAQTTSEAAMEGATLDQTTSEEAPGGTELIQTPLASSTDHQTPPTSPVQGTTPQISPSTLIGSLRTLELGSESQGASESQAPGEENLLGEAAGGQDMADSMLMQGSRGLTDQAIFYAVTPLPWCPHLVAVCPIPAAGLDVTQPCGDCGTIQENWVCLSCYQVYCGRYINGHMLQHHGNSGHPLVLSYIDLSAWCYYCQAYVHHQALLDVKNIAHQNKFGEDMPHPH
Protocol: as §1, §2, §3

SKOV-3 = test: Cell-based proliferation assay (SRB), SKOV-3; details: Homo sapiens
Protocol: as §4, §5, §6, §7

[1] = Microsomal stability and clearance; type: in vitro ADME, human, mouse; details: microsomal stability; Table 4
Protocol: Measure of Microsomal Stability and Clearance with Compounds of this Invention
Verapamil (positive control) and compound solution, both at 10 mM, are diluted 200 fold. There are six reaction time points in the experiment (0 min, 5 min, 15 min, 30 min, 45 min, and 60 min), and triplicate samples are used for each data point. There are controls for time zero and negative drug effect (negative control containing no incubation buffer or enzyme). For each compound or Verapamil sample, there are also samples treated with compound or Verapamil at concentrations of no positive effect (at 5 μM and 2.5 μM, respectively). Diluted positive control (Verapamil) and compound solution are mixed with pre-heated (37° C.) incubation buffer (100 mM potassium phosphate buffer, NADPH regeneration system solution B, NAPDH regeneration system solution A, HLM/MLM in Milli-Q ultrapure water), and incubated at 37° C. for 10 min. 100 μL of stop solution mixture is (containing 80% acetonitrile, and 20% DMSO, both of HPLC grade) is dispensed into wells of separate sampling plates into each well. At each reaction time point (0 min, 5 min, 15 min, 30 min, 45 min, and 60 min) 50 μL of reaction solution is taken from wells in the incubation plate and transferred to its corresponding well in the sampling plate, and mixed by pipetting up and down with stop solution already added there. The sampling plates are then covered, placed on ice, and centrifuged at 2,000 rpm at 4° C. for 15 min. 100 μL supernatant is then taken from each well to LC/MS analysis (or stored at 4° C. in refrigerator until analysis).
Data analysis: % remaining of compound is calculated by area of each time point with respect to time 0% remaining against time (min) curve is plotted using the first-phase exponential decay equation y=y0e(−kT) on the Prism 4.0. Results are shown in the format of TOP, K, t1/2 (min), R2 value and % remaining against time curve.

MDAMB231 = test: Cell-based proliferation assay (SRB), MDAMB231; details: Homo sapiens, MDA-MB-231; Table 4
Protocol: as §4, §5, §6, §7

| SMILES | IC50 (HDACs) [nM] | pIC50 (HDACs) | GI50 (HL-60; HL-60, Table 3) [µM] | GI50 (HL-60; HL-60, Table 4) [µM] | GI50 (HCT116; HCT-116, Table 3) [µM] | GI50 (HCT116; HCT-116, Table 4) [µM] | GI50 (MDAMB435; MDA-MB-435, Table 3) [µM] | GI50 (MDAMB435; MDA-MB-435, Table 4) [µM] | GI50 (BXPC-3; BXPC-3, Table 3) [µM] | GI50 (Colo205; COLO 205, Table 3) [µM] | GI50 (Colo205; COLO 205, Table 4) [µM] | IC50 (HDAC6) [nM] | GI50 (SKOV-3; SK-OV-3, Table 3) [µM] | GI50 (SKOV-3; SK-OV-3, Table 4) [µM] | half-life [1] [min] | GI50 (MDAMB231) [µM] | GI50 (BXPC-3; BXPC-3, Table 4) [µM] |
| --- | --- | --- | --- | --- | --- | --- | --- | --- | --- | --- | --- | --- | --- | --- | --- | --- | --- |
| CCN(CC)CCSc1ccc(/C=C/C(=O)NO)cc1NCCCc1ccccc1 [Example 1, 3-(4-(2-(diethylamino)ethylthio)-3-(3-phenylpropylamino)phenyl)-N-hydroxy-acrylamide] | 98 | 4.01 | 3.52 | 3.52 | 0.78 | 0.78 | 3.33 | 3.33 | 15 | 5.68 | 5.68 | 627 | 4.57 | 4.57 | 84 | 3.49 |  |
| CCCNc1cc(/C=C/C(=O)NO)ccc1SCCN(CC)CC [Example 3, 3-(4-(2-(diethylamino)ethylthio)-3-(propylamino)phenyl)-N-hydroxy-acrylamide] | 19 | 4.72 | 1.98 | 1.98 | 3.65 | 3.65 | 2.6 | 2.6 | 14.5 | 2.95 | 2.95 | 653 | 2.58 | 2.58 | 108 | 2.98 |  |
| CCN(CC)CCSc1ccc(/C=C/C(=O)NO)cc1NC(C)=O [Example 4] | > 100 | 4.07 |  | 1.63 |  | 2.02 |  | 3.56 |  |  | 2 | 357 |  | 0.7 | 96 | 4.63 | 3.56 |
| CCN(CC)CCSc1ccc(/C=C/C(=O)NO)cc1[N+](=O)[O-] [Example 5, 3-(4-(2-(diethylamino)ethylthio)-3-nitrophenyl)-N-hydroxy-acrylamide] | 86 | 4.46 | 1.63 |  | 2.02 |  | 3.56 |  | 95.4 | 2 |  | 313 | 0.7 |  | 132 | 1.92 |  |
| CCN(CC)CCSc1ccc(/C=C/C(=O)NO)cc1NCc1ccccc1 [Example 6, 3-(3-(benzylamino)-4-(2-(di-ethylamino)ethylthio)phenyl)-N-hydroxy-acrylamide] | 35 | 4.02 | 1.32 |  | 0.78 |  | 1.95 |  | 4.33 | 2.28 |  | 275 | 2.81 |  | 150 | 4.39 |  |
| C=CCNc1cc(/C=C/C(=O)NO)ccc1SCCN(CC)CC [Example 7, 3-(3-(allylamino)-4-(2-(di-ethylamino)ethylthio)phenyl)-N-hydroxy-acrylamide] | > 100 |  |  |  |  |  |  |  |  |  |  | 350 |  |  |  |  |  |
| CCN(CC)CCSc1ccc(/C=C/C(=O)NO)cc1NC [Example 8, 3-(4-(2-(diethylamino)ethylthio)-3-(methylamino)phenyl)-N-hydroxy-acrylamide] | 95 |  | 15.2 |  | 13.9 |  | 16.6 |  | 16 | 10.6 |  | 800 | 15.6 |  |  |  |  |
| CCN(CC)CCSc1ccc(/C=C/C(=O)NO)cc1N [Example 9, 3-(3-amino-4-(2-(diethylamino)ethylthio)phenyl)-N-hydroxy-acrylamide] | > 100 |  |  |  |  |  |  |  |  |  |  | 295 |  |  |  |  |  |
| CCCCCNC(=O)Nc1cc(/C=C/C(=O)NO)ccc1SCCN(CC)CC [Example 10, 3-(4-(2-(diethylamino)ethylthio)-3-(3-pentylureido)phenyl)-N-hydroxy-acrylamide] | 55 |  | 15.7 |  | 18.2 |  | 10.2 |  | 19.9 | 17.6 |  | 200 | 16.9 |  |  |  |  |
| C=CCCCNc1cc(/C=C/C(=O)NO)ccc1SCCN(CC)CC [Example 12, 3-(4-(2-(diethylamino)ethylthio)-3-(pent-4-enylamino)phenyl)-N-hydroxy-acrylamide] | > 100 |  |  |  |  |  |  |  |  |  |  | 310 |  |  |  |  |  |
| CCN(CC)CCSc1ccc(/C=C/C(=O)NO)cc1NC(=O)C(Cl)Cl [Example 13, 3-(3-(2,2-dichloroacetamido)-4-(2-(diethylamino)ethylthio)phenyl)-N-hydroxy-acrylamide] |  |  | 4.31 |  | 2.56 |  | 5.96 |  | 97.7 | 5.63 |  |  | 3.82 |  |  |  |  |
